Bridge positions count the residues as written; N and C are the ends. Square brackets hold non-standard residues; d marks the D form. Peptide text beside a SMILES is read from it. * marks the point of attachment. hPhe(3,5-F2-4-CF3) = N[C@@H](CCc1cc(F)c(C(F)(F)F)c(F)c1)C(=O)O; hPhe(3-Cl-4-CF3) = N[C@@H](CCc1ccc(C(F)(F)F)c(Cl)c1)C(=O)O; hPhe(3-F,4-CF3) = N[C@@H](CCc1ccc(C(F)(F)F)c(F)c1)C(=O)O; Thiomorpholino(1,1-dioxo) = O=S1(=O)CCN(*)CC1; NMePhe(4-Me) = CN[C@@H](Cc1ccc(C)cc1)C(=O)O; Phe(3-I) = N[C@@H](Cc1cccc(I)c1)C(=O)O; Pro(4,4-F2) = O=C(O)[C@@H]1CC(F)(F)CN1; NMeGly(cBu) = CN[C@H](C(=O)O)C1CCC1; NMeCha = CN[C@@H](CC1CCCCC1)C(=O)O; NMeChg = CN[C@H](C(=O)O)C1CCCCC1; NMeT = CN[C@H](C(=O)O)[C@@H](C)O; hPhe = N[C@@H](CCc1ccccc1)C(=O)O; NMeD = CN[C@@H](CC(=O)O)C(=O)O; NMeL = CN[C@@H](CC(C)C)C(=O)O; Chg = N[C@H](C(=O)O)C1CCCCC1; NMeV = CN[C@H](C(=O)O)C(C)C; d(β3hA) = C[C@@H](N)CC(=O)O; NMeS = CN[C@@H](CO)C(=O)O; NMeA = CN[C@@H](C)C(=O)O; NMeAib = CNC(C)(C)C(=O)O; Piperidide = C1CCN(*)CC1; Pyrrolidide = C1CCN(*)C1; Ac5c = NC1(C(=O)O)CCCC1; Aze = O=C(O)[C@@H]1CCN1; CH2CMe2OH = CC(C)(O)C*; Aib = CC(C)(N)C(=O)O; Isopentyl = CC(C)CC*; NEtG = CCNCC(=O)O; Sar = CNCC(=O)O
What follows are compounds tested on Human pancreatic cancer cell line AsPC-1 (G12D mutation Kras) (assay: AsPC-1 cell growth inhibition (AsPC-1 CGI)). Conditions: read-out: AsPC-1 cell growth inhibition, 50% growth inhibitory concentration (IC50 value); 96 hours, CellTiter-Glo, values classified in ranges.
Assay type: cell-based
Experimental: Test compounds were serially dilated with dimethyl sulfoxide, and 200 nL was then dispensed to a U-bottom 96-well plate using Labcyte Echo. […] The cell suspension was dispensed to a. plate containing a test compound at 100 μL per well and incubated at 37° C. in a 5% carbon dioxide gas incubator. 96 hours later, 80 μL of CellTiter-Glo (Promega) was added to each well and fluorescence was measured.
CC[C@H](C)[C@@H]1NC(=O)[C@H](C2CCC2)N(C)C(=O)C[C@@H](C(=O)N2CCCC2)N(C)C(=O)[C@H](C2CCCCC2)N(C)C(=O)C2(CCCC2)NC(=O)[C@@H]2CC(F)(F)CN2C(=O)[C@H](CCc2cc(F)c(C(F)(F)F)c(F)c2)NC(=O)CN(C)C(=O)[C@H](CC2CCCCC2)N(C)C(=O)CN(C)C(=O)CN(C)C1=O [Compound 1295] ([NMeGly(cBu)]I[Sar][Sar][NMeCha][Sar][hPhe(3,5-F2-4-CF3)][Pro(4,4-F2)][Ac5c][NMeChg][NMeD]-Pyrrolidide; lactam N-11) was tested, and the IC50 was no more than 20 nM.
In the case of CC[C@H](C)[C@@H]1NC(=O)[C@H](CC(C)C)N(C)C(=O)C[C@@H](C(=O)N2CCCCC2)N(C)C(=O)[C@H](C2CCCCC2)N(C)C(=O)C2(CCCC2)NC(=O)[C@@H]2CCCN2C(=O)[C@H](CCc2ccc(C(F)(F)F)c(Cl)c2)NC(=O)CN(C)C(=O)[C@H]([C@@H](C)O)N(C)C(=O)CN(C)C(=O)CN(C)C1=O [Compound 427] ([NMeL]I[Sar][Sar][NMeT][Sar][hPhe(3-Cl-4-CF3)]P[Ac5c][NMeChg][NMeD]-Piperidide; lactam N-11), the IC50 is reported as greater than 500 nM.
CC[C@H](C)[C@@H]1NC(=O)[C@H](CC(C)C)N(C)C(=O)C[C@@H](C)NC(=O)[C@H](CC(C)C)N(C)C(=O)C(C)(C)NC(=O)[C@H](COCC(C)(C)O)N(C)C(=O)[C@H](CCc2ccc(C(F)(F)F)c(Cl)c2)NC(=O)CN(C)C(=O)[C@H](COCCC(C)C)N(C)C(=O)[C@@H]2CCN2C(=O)CN(CC)C1=O [Compound 1472] (cyclo([Aib][NMeL][d(β3hA)][NMeL]I[NEtG][Aze][NMeS](Isopentyl)[Sar][hPhe(3-Cl-4-CF3)][NMeS](CH2CMe2OH))) was tested, and the IC50 was greater than 500 nM.
CC[C@H](C)[C@@H]1NC(=O)[C@H](C)N(C)C(=O)C[C@@H](C)NC(=O)[C@H](C(C)C)N(C)C(=O)C2(CCCC2)NC(=O)[C@@H]2CCCN2C(=O)[C@H](CCc2ccc(C(F)(F)F)c(Cl)c2)NC(=O)CN(C)C(=O)[C@H](CC2CCCCC2)N(C)C(=O)[C@@H]2CCN2C(=O)[C@H](C)N(C)C1=O [Compound 1578] (cyclo([Ac5c][NMeV][d(β3hA)][NMeA]I[NMeA][Aze][NMeCha][Sar][hPhe(3-Cl-4-CF3)]P)) was tested, and the IC50 was greater than 500 nM.
Compound CC[C@H](C)[C@@H]1NC(=O)[C@H](CC(C)C)N(C)C(=O)C[C@@H](C(=O)N2CCCCC2)N(C)C(=O)[C@H](CC(C)C)NC(=O)C(C)(C)N(C)C(=O)[C@H](CCc2ccccc2)NC(=O)[C@H](Cc2cccc(I)c2)NC(=O)CN(C)C(=O)[C@H](Cc2ccc(C)cc2)N(C)C(=O)[C@@H]2CCN2C(=O)CN(C)C1=O [Compound 442] ([NMeL]I[Sar][Aze][NMePhe(4-Me)][Sar][Phe(3-I)][hPhe][NMeAib]L[NMeD]-Piperidide; lactam N-11) has an IC50 greater than 500 nM.
Compound CC(C)C[C@H]1C(=O)N[C@@H](C2CCCCC2)C(=O)N(C)CC(=O)N(C)CC(=O)N(C)[C@@H](CC2CCCCC2)C(=O)N(C)CC(=O)N[C@@H](CCc2ccc(C(F)(F)F)c(F)c2)C(=O)N2CCC[C@H]2C(=O)NC2(CCCC2)C(=O)N(C)[C@@H](CC(C)C)C(=O)N[C@H](C)CC(=O)N1C [Compound 1527] (cyclo([Ac5c][NMeL][d(β3hA)][NMeL][Chg][Sar][Sar][NMeCha][Sar][hPhe(3-F,4-CF3)]P)) has an IC50 greater than 500 nM.
Work on CC[C@H](C)[C@@H]1NC(=O)[C@H](CC(C)C)N(C)C(=O)C[C@@H](C(=O)N2CCS(=O)(=O)CC2)N(C)C(=O)[C@H](C(C)C)N(C)C(=O)C2(CCCC2)NC(=O)[C@@H]2CCCN2C(=O)[C@H](CCc2ccc(C(F)(F)F)c(Cl)c2)NC(=O)CN(C)C(=O)[C@H](CC2CCCCC2)N(C)C(=O)[C@@H]2CCN2C(=O)[C@H](C)N(C)C1=O [Compound 1238] ([NMeL]I[NMeA][Aze][NMeCha][Sar][hPhe(3-Cl-4-CF3)]P[Ac5c][NMeV][NMeD]-{Thiomorpholino(1,1-dioxo)}; lactam N-11) yielded an IC50 greater than 500 nM.

Source: patent US20240148821A1, “PHARMACEUTICAL USE OF CYCLIC PEPTIDE COMPOUND” (CHUGAI SEIYAKU KABUSHIKI KAISHA, priority 2021, published 2024)
